In the NIST ThermoML archive (doi:10.1021/je800234h):
Numbers after ± are expanded uncertainties.

Test: mn = molality of the nth substance listed, in mol/kg
Settings: Liquid, Vibrating tube method

[Ca+2].[Cl-].[Cl-] [calcium chloride] + CCO
mass density [kg/m3]
Settings	323.15 K	348.15 K
270 kPa, m1 = 1.266	–	833.32 ± 0.35
310 kPa, m1 = 1.55	–	852.87 ± 0.36
580 kPa, m1 = 0.9896	–	814.32 ± 0.35
620 kPa, m1 = 0.4379	–	774.92 ± 0.34
750 kPa, m1 = 0.09327	–	748.39 ± 0.34
750 kPa, m1 = 0.6899	–	792.97 ± 0.34
890 kPa, m1 = 0.1743	–	755.18 ± 0.34
5060 kPa, m1 = 0.9896	–	819.3 ± 0.36
5060 kPa, m1 = 1.266	–	837.99 ± 0.36
5080 kPa, m1 = 0.6899	–	797.87 ± 0.36
5090 kPa, m1 = 0.1743	–	760.16 ± 0.35
5130 kPa, m1 = 0.4379	–	780.06 ± 0.35
5210 kPa, m1 = 1.55	–	858.12 ± 0.37
5620 kPa, m1 = 0.09327	–	754.25 ± 0.36
10060 kPa, m1 = 1.266	865.4 ± 0.38	–
10160 kPa, m1 = 1.55	–	863.08 ± 0.38
10180 kPa, m1 = 0.6899	825.76 ± 0.37	–
10240 kPa, m1 = 0.4379	–	785.57 ± 0.37
10310 kPa, m1 = 0.9896	–	824.81 ± 0.37
10340 kPa, m1 = 0.09327	781.44 ± 0.37	–
10410 kPa, m1 = 0.6899	–	803.58 ± 0.37
10450 kPa, m1 = 1.266	–	843.06 ± 0.37
10480 kPa, m1 = 0.1743	787.98 ± 0.37	766.21 ± 0.37
10740 kPa, m1 = 1.55	885.92 ± 0.38	–
10820 kPa, m1 = 0.09327	–	760.15 ± 0.38
10890 kPa, m1 = 0.9896	847.78 ± 0.38	–
14890 kPa, m1 = 0.6899	–	808.11 ± 0.39
15020 kPa, m1 = 1.55	889.39 ± 0.39	–
15060 kPa, m1 = 0.4379	811.96 ± 0.39	–
15210 kPa, m1 = 0.9896	–	829.63 ± 0.39
15310 kPa, m1 = 0.4379	–	790.73 ± 0.39
15370 kPa, m1 = 0.6899	830.3 ± 0.39	–
15380 kPa, m1 = 0.09327	–	765.02 ± 0.4
15410 kPa, m1 = 1.266	869.66 ± 0.38	–
15420 kPa, m1 = 0.9896	851.64 ± 0.38	–
15620 kPa, m1 = 0.1743	792.67 ± 0.39	–
15680 kPa, m1 = 1.55	–	868.22 ± 0.39
15760 kPa, m1 = 0.1743	–	771.77 ± 0.4
15780 kPa, m1 = 0.09327	786.43 ± 0.4	–
15840 kPa, m1 = 1.266	–	847.95 ± 0.39
19980 kPa, m1 = 1.266	873.2 ± 0.39	851.59 ± 0.4
20040 kPa, m1 = 0.4379	816.13 ± 0.4	–
20060 kPa, m1 = 0.6899	–	813.01 ± 0.4
20060 kPa, m1 = 0.9896	855.4 ± 0.4	–
20420 kPa, m1 = 1.55	893.5 ± 0.39	–
20430 kPa, m1 = 0.09327	–	770.09 ± 0.42
20640 kPa, m1 = 0.1743	796.99 ± 0.41	–
20640 kPa, m1 = 0.6899	834.66 ± 0.4	–
20980 kPa, m1 = 0.09327	790.93 ± 0.42	–
24860 kPa, m1 = 1.266	876.87 ± 0.4	–
24870 kPa, m1 = 0.4379	819.96 ± 0.42	–
25080 kPa, m1 = 0.9896	859.23 ± 0.41	–
25310 kPa, m1 = 1.55	896.97 ± 0.4	–
25390 kPa, m1 = 0.6899	838.36 ± 0.41	–
25680 kPa, m1 = 0.09327	794.77 ± 0.44	–
25870 kPa, m1 = 0.1743	801.22 ± 0.43	–
30020 kPa, m1 = 0.4379	823.82 ± 0.44	–
30070 kPa, m1 = 1.266	880.67 ± 0.41	–
30140 kPa, m1 = 1.55	900.16 ± 0.41	–
30180 kPa, m1 = 0.6899	841.89 ± 0.43	–
30380 kPa, m1 = 0.1743	804.64 ± 0.45	–
30390 kPa, m1 = 0.09327	798.4 ± 0.46	–
30450 kPa, m1 = 0.9896	863.05 ± 0.42	–
35150 kPa, m1 = 0.4379	827.42 ± 0.46	–
35160 kPa, m1 = 1.266	884.27 ± 0.42	–
35210 kPa, m1 = 0.9896	866.21 ± 0.43	–
35620 kPa, m1 = 1.55	903.49 ± 0.41	–
35760 kPa, m1 = 0.6899	845.73 ± 0.45	–
35870 kPa, m1 = 0.09327	802.35 ± 0.48	–
35920 kPa, m1 = 0.1743	808.56 ± 0.48	–
39760 kPa, m1 = 0.4379	830.46 ± 0.47	–
39860 kPa, m1 = 0.09327	805.04 ± 0.5	–
39870 kPa, m1 = 1.266	887.49 ± 0.43	–
39940 kPa, m1 = 0.1743	811.21 ± 0.49	–
39940 kPa, m1 = 0.6899	848.42 ± 0.46	–
39960 kPa, m1 = 0.9896	869.15 ± 0.44	–
39980 kPa, m1 = 1.55	905.92 ± 0.42	–
